Source: PubChem BioAssay AID274 (DTP/NCI, 2004)
“And” between values parts separate entries of the source, which are not always exact repeats. Equal entries are not always repeated. Toxic doses and inconclusive results are not listed.

Tested on: BDF1 mice, Lewis lung carcinoma iv, survival T/C
Experiment: NCI In Vivo Anticancer Drug Screen. Data for tumor model Lewis Lung Carcinoma (intravenous) in B6D2F1 (BDF1) mice
Details: endpoint: median survival time, higher = longer survival
Method: The antitumor activity of compounds was measured in mice bearing transplantable tumors. Survival or tumor size were measured and the results are expressed as the measurement made in the treated group (T) divided by the measurement made in the vehicle treated control group (C). The tumor model used in this assay is Lewis Lung Carcinoma (intravenous) in B6D2F1 (BDF1) mice

[1] = dose: 12.5 mg/kg/injection, schedule: Q01DX009 (ip), vehicle: Klucel (hydroxypropylcellulose) (HPC)
[2] = dose: 25.0 mg/kg/injection, schedule: Q01DX009 (ip), vehicle: Klucel (hydroxypropylcellulose) (HPC)
[3] = dose: 50.0 mg/kg/injection, schedule: Q01DX009 (ip), vehicle: Klucel (hydroxypropylcellulose) (HPC)
[4] = dose: 100.0 mg/kg/injection, schedule: Q01DX009 (ip), vehicle: Klucel (hydroxypropylcellulose) (HPC)
[5] = dose: 200.0 mg/kg/injection, schedule: Q01DX009 (ip), vehicle: Klucel (hydroxypropylcellulose) (HPC)
[6] = dose: 400.0 mg/kg/injection, schedule: Q01DX009 (ip), vehicle: Klucel (hydroxypropylcellulose) (HPC)
[7] = dose: 1.0 mg/kg/injection, schedule: Q01DX009 (ip), vehicle: saline
[8] = dose: 2.0 mg/kg/injection, schedule: Q01DX009 (ip), vehicle: saline
[9] = dose: 100.0 mg/kg/injection, schedule: Q01DX009 (ip), vehicle: saline with Tween-80
[10] = dose: 200.0 mg/kg/injection, schedule: Q01DX009 (ip), vehicle: saline with Tween-80

CCOC(=O)C1C2OC(=O)C(C(=O)C2CN(CCCl)CCCl)C1C1CC=C(CC2=CCC(C3C4C(=O)OC(C(CN(CCCl)CCCl)C4=O)C3C(=O)OCC)CC2)CC1 (stereo unspecified)
T/C [1]: 104 % of control | T/C [2]: 104 % of control | T/C [3]: 102 % of control | T/C [4]: 111 % of control

NC(=O)c1cn(C2OC(CO)C(O)C2O)c2ncnc(N)c12 (stereo unspecified)
T/C (dose: 0.38 mg/kg/injection, schedule: Q01DX009 (ip), vehicle: Klucel (hydroxypropylcellulose) (HPC)): 95 % of control | T/C (dose: 0.75 mg/kg/injection, schedule: Q01DX009 (ip), vehicle: Klucel (hydroxypropylcellulose) (HPC)): 101 % of control | T/C (dose: 1.5 mg/kg/injection, schedule: Q01DX009 (ip), vehicle: Klucel (hydroxypropylcellulose) (HPC)): 92 % of control

S=C(Nc1ccc(Cl)c(Cl)c1)N1c2ccccc2-n2cccc2C1c1cccnc1 (stereo unspecified)
T/C [1]: 93 % of control and 105 % of control | T/C [2]: 99 % of control and 91 % of control | T/C [3]: 98 % of control and 100 % of control | T/C [4]: 94 % of control and 101 % of control | T/C [5]: 105 % of control and 110 % of control | T/C [6]: 115 % of control

COc1cc(C(=O)c2cocc2C(=O)c2ccc3c(c2)OCO3)cc(OC)c1OC
T/C [3]: 88 % of control | T/C [6]: 94 % of control

CC(=O)OCC1OC(n2ncc(=O)[nH]c2=O)C(OC(C)=O)C1OC(C)=O (stereo unspecified)
T/C [4]: 100 % of control | T/C [5]: 109 % of control | T/C [6]: 107 % of control

COc1cccc2c1C(=O)c1c(O)c3c(c(O)c1C2=O)C[C@@](O)(C(=O)CO)C[C@@H]3OC1CC(N)C(O)C(C)O1 (stereo partly specified)
T/C (dose: 0.12 mg/kg/injection, schedule: Q01DX009 (ip), vehicle: saline): 97 % of control | T/C (dose: 0.25 mg/kg/injection, schedule: Q01DX009 (ip), vehicle: saline): 99 % of control and 110 % of control and 90 % of control | T/C (dose: 0.5 mg/kg/injection, schedule: Q01DX009 (ip), vehicle: saline): 99 % of control and 106 % of control and 113 % of control | T/C (dose: 0.5 mg/kg/injection, schedule: Q04DX003 (ip), vehicle: saline): 100 % of control | T/C (dose: 0.88 mg/kg/injection, schedule: Q01DX009 (ip), vehicle: saline): 107 % of control | T/C [7]: 100 % of control and 111 % of control and 280 % of control | T/C (dose: 1.0 mg/kg/injection, schedule: Q04DX003 (ip), vehicle: saline): 92 % of control and 95 % of control | T/C (dose: 1.26 mg/kg/injection, schedule: Q01DX009 (ip), vehicle: saline): 121 % of control | T/C (dose: 1.92 mg/kg/injection, schedule: Q04DX003 (ip), vehicle: saline): 111 % of control | T/C (dose: 2.0 mg/kg/injection, schedule: Q01DX001 (ip), vehicle: saline): 112 % of control and 122 % of control | T/C [8]: 112 % of control and 115 % of control | T/C (dose: 2.0 mg/kg/injection, schedule: Q04DX003 (ip), vehicle: saline): 96 % of control and 110 % of control | T/C (dose: 2.57 mg/kg/injection, schedule: Q01DX009 (ip), vehicle: saline): 197 % of control | T/C (dose: 3.6 mg/kg/injection, schedule: Q01DX001 (im), vehicle: water): 113 % of control | T/C (dose: 3.9 mg/kg/injection, schedule: Q04DX003 (ip), vehicle: saline): 225 % of control | T/C (dose: 4.0 mg/kg/injection, schedule: Q01DX001 (ip), vehicle: saline): 114 % of control | T/C (dose: 4.0 mg/kg/injection, schedule: Q04DX003 (ip), vehicle: saline): 101 % of control and 105 % of control | T/C (dose: 4.8 mg/kg/injection, schedule: Q01DX001 (iv), vehicle: saline): 114 % of control and 115 % of control and 123 % of control | T/C (dose: 5.6 mg/kg/injection, schedule: Q04DX003 (ip), vehicle: saline): 253 % of control | T/C (dose: 6.0 mg/kg/injection, schedule: Q01DX001 (im), vehicle: water): 101 % of control | T/C (dose: 6.86 mg/kg/injection, schedule: Q01DX001 (iv), vehicle: saline): 151 % of control | T/C (dose: 8.0 mg/kg/injection, schedule: Q01DX001 (ip), vehicle: saline): 154 % of control and 169 % of control | T/C (dose: 8.0 mg/kg/injection, schedule: Q04DX003 (ip), vehicle: saline): 105 % of control | T/C (dose: 9.8 mg/kg/injection, schedule: Q01DX001 (iv), vehicle: saline): 195 % of control | T/C (dose: 14.0 mg/kg/injection, schedule: Q01DX001 (iv), vehicle: saline): 175 % of control and 333 % of control

[Cl][Mn][Cl]
T/C [7]: 109 % of control | T/C [8]: 99 % of control | T/C (dose: 4.0 mg/kg/injection, schedule: Q01DX009 (ip), vehicle: saline): 105 % of control and 90 % of control | T/C (dose: 8.0 mg/kg/injection, schedule: Q01DX009 (ip), vehicle: saline): 101 % of control and 121 % of control | T/C (dose: 16.0 mg/kg/injection, schedule: Q01DX009 (ip), vehicle: saline): 91 % of control and 101 % of control | T/C (dose: 32.0 mg/kg/injection, schedule: Q01DX009 (ip), vehicle: saline): 94 % of control and 98 % of control | T/C (dose: 64.0 mg/kg/injection, schedule: Q01DX009 (ip), vehicle: saline): 96 % of control and 108 % of control

Nc1ncnc2c1ncn2C1OC(CO)C(O)C1O (stereo unspecified)
T/C (dose: 32.0 mg/kg/injection, schedule: Q01DX009 (ip), vehicle: Klucel (hydroxypropylcellulose) (HPC)): 101 % of control | T/C (dose: 64.0 mg/kg/injection, schedule: Q01DX009 (ip), vehicle: Klucel (hydroxypropylcellulose) (HPC)): 108 % of control | T/C (dose: 128.0 mg/kg/injection, schedule: Q01DX009 (ip), vehicle: Klucel (hydroxypropylcellulose) (HPC)): 97 % of control | T/C (dose: 256.0 mg/kg/injection, schedule: Q01DX009 (ip), vehicle: Klucel (hydroxypropylcellulose) (HPC)): 106 % of control | T/C (dose: 512.0 mg/kg/injection, schedule: Q01DX009 (ip), vehicle: Klucel (hydroxypropylcellulose) (HPC)): 87 % of control

O=C(O)CC(NC(=O)CP(=O)(O)O)C(=O)O (stereo unspecified)
T/C (dose: 490.0 mg/kg/injection, schedule: Q04DX003 (ip), vehicle: saline): 165 % of control | T/C (dose: 700.0 mg/kg/injection, schedule: Q04DX003 (ip), vehicle: saline): 100 % of control

O=C(N/N=C/c1ccccc1O)c1ccncc1
T/C (dose: 108.0 mg/kg/injection, schedule: Q01DX007 (ip), vehicle: Klucel (hydroxypropylcellulose) (HPC)): 95 % of control | T/C (dose: 154.4 mg/kg/injection, schedule: Q01DX007 (ip), vehicle: Klucel (hydroxypropylcellulose) (HPC)): 99 % of control | T/C (dose: 220.5 mg/kg/injection, schedule: Q01DX007 (ip), vehicle: Klucel (hydroxypropylcellulose) (HPC)): 89 % of control | T/C (dose: 315.0 mg/kg/injection, schedule: Q01DX007 (ip), vehicle: Klucel (hydroxypropylcellulose) (HPC)): 89 % of control

CC1CCOS(=O)O1 (stereo unspecified)
T/C (dose: 10.0 mg/kg/injection, schedule: Q01DX009 (ip), vehicle: saline): 100 % of control | T/C (dose: 20.0 mg/kg/injection, schedule: Q01DX009 (ip), vehicle: saline): 94 % of control | T/C (dose: 40.0 mg/kg/injection, schedule: Q01DX009 (ip), vehicle: saline): 95 % of control

COC1/C=C/O[C@@]2(C)Oc3c(C)c(O)c4c(O)c(cc(O)c4c3C2=O)NC(=O)/C(C)=C\C=C\[C@H](C)C(O)[C@@H](C)[C@@H](O)[C@@H](C)[C@H](OC(C)=O)[C@@H]1C (stereo partly specified)
T/C (dose: 12.5 mg/kg/injection, schedule: Q01DX009 (ip), vehicle: saline with Tween-80): 102 % of control | T/C (dose: 25.0 mg/kg/injection, schedule: Q01DX009 (ip), vehicle: saline with Tween-80): 101 % of control | T/C (dose: 50.0 mg/kg/injection, schedule: Q01DX009 (ip), vehicle: saline with Tween-80): 103 % of control | T/C [9]: 107 % of control | T/C [10]: 102 % of control | T/C (dose: 400.0 mg/kg/injection, schedule: Q01DX009 (ip), vehicle: saline with Tween-80): 111 % of control

CN(C)c1ccc2c(SCC(=O)OCC(=O)[C@@]3(O)CC[C@H]4[C@@H]5CCC6=CC(=O)C=C[C@]6(C)[C@H]5C(=O)C[C@@]43C)c3ccc(N(C)C)cc3nc2c1
T/C [2]: 104 % of control | T/C [3]: 106 % of control | T/C [4]: 107 % of control | T/C [5]: 102 % of control | T/C [6]: 107 % of control

C=C(C)C(=O)OCC1CO1 (stereo unspecified)
T/C [3]: 88 % of control | T/C [4]: 105 % of control

Nc1nc(=S)c2ncn(C3OC(COC(=O)c4ccc(Cl)cc4)C(OC(=O)c4ccc(Cl)cc4)C3OC(=O)c3ccc(Cl)cc3)c2[nH]1 (stereo unspecified)
T/C (dose: 18.75 mg/kg/injection, schedule: Q01DX009 (ip), vehicle: Klucel (hydroxypropylcellulose) (HPC)): 103 % of control | T/C (dose: 37.5 mg/kg/injection, schedule: Q01DX009 (ip), vehicle: Klucel (hydroxypropylcellulose) (HPC)): 106 % of control | T/C (dose: 150.0 mg/kg/injection, schedule: Q01DX009 (ip), vehicle: Klucel (hydroxypropylcellulose) (HPC)): 89 % of control

O=c1[nH]c(=O)n(C2CC(O)C(CO)O2)cc1I (stereo unspecified)
T/C [9]: 99 % of control | T/C [10]: 108 % of control

Nc1n[nH]c(N)n1
T/C (dose: 100.0 mg/kg/injection, schedule: Q01DX009 (ip), vehicle: saline): 90 % of control | T/C (dose: 200.0 mg/kg/injection, schedule: Q01DX009 (ip), vehicle: saline): 103 % of control | T/C (dose: 400.0 mg/kg/injection, schedule: Q01DX009 (ip), vehicle: saline): 96 % of control | T/C (dose: 800.0 mg/kg/injection, schedule: Q01DX009 (ip), vehicle: saline): 119 % of control
